# Measured values from ChEMBL document CHEMBL3232998, “Spiromastixones A-O, antibacterial chlorodepsidones from a deep-sea-derived Spiromastix sp. fungus” (J Nat Prod, 2014).
# Test system: Staphylococcus aureus
# Assay: Antibacterial activity against Staphylococcus aureus ATCC 29213 after 18 hrs by broth microdilution method
# Assay type: functional
# Conditions: ATCC 29213, 18 h
row,Compound,MIC [µg/mL]
1,CCCc1c(Cl)c(O)c(Cl)c2c1Oc1c(Cl)c(O)c(Cl)c(CCC)c1C(=O)O2,4
2,CCCc1c(Cl)c(OC)cc2c1OC(=O)c1c(CCC)c(Cl)c(O)c(Cl)c1O2,0.5
3,CCCc1c(Cl)c(OC)c(Cl)c2c1OC(=O)c1c(CCC)c(Cl)c(O)c(Cl)c1O2,0.25
4,CCCc1cc(O)cc2c1OC(=O)c1c(CCC)c(Cl)c(O)c(Cl)c1O2,4

# Test system: Bacillus thuringiensis
# Assay: Antibacterial activity against Bacillus thuringiensis SCSIO BT01 after 18 hrs by broth microdilution method
# Assay type: functional
# Conditions: SCSIO BT01, 18 h
row,Compound,MIC [µg/mL]
1,CCCc1c(Cl)c(O)c(Cl)c2c1Oc1c(Cl)c(O)c(Cl)c(CCC)c1C(=O)O2,2
2,CCCc1c(Cl)c(OC)cc2c1OC(=O)c1c(CCC)c(Cl)c(O)c(Cl)c1O2,0.5
3,CCCc1c(Cl)c(OC)c(Cl)c2c1OC(=O)c1c(CCC)c(Cl)c(O)c(Cl)c1O2,0.5
4,CCCc1cc(O)cc2c1OC(=O)c1c(CCC)c(Cl)c(O)c(Cl)c1O2,2

# Test system: Bacillus subtilis
# Assay: Antibacterial activity against Bacillus subtilis SCSIO BS01 after 18 hrs by broth microdilution method
# Assay type: functional
# Conditions: SCSIO BS01, 18 h
row,Compound,MIC [µg/mL]
1,CCCc1c(Cl)c(O)c(Cl)c2c1Oc1c(Cl)c(O)c(Cl)c(CCC)c1C(=O)O2,2
2,CCCc1c(Cl)c(OC)cc2c1OC(=O)c1c(CCC)c(Cl)c(O)c(Cl)c1O2,0.5
3,CCCc1c(Cl)c(OC)c(Cl)c2c1OC(=O)c1c(CCC)c(Cl)c(O)c(Cl)c1O2,0.25
4,CCCc1cc(O)cc2c1OC(=O)c1c(CCC)c(Cl)c(O)c(Cl)c1O2,2

# Test system: Escherichia coli
# Assay: Antibacterial activity against Escherichia coli ATCC 25922 after 18 hrs by broth microdilution method
# Assay type: functional
# Conditions: ATCC 25922, 18 h
row,Compound,MIC [µg/mL]
1,CCCc1c(Cl)c(O)c(Cl)c2c1Oc1c(Cl)c(O)c(Cl)c(CCC)c1C(=O)O2,> 128
2,CCCc1c(Cl)c(OC)cc2c1OC(=O)c1c(CCC)c(Cl)c(O)c(Cl)c1O2,> 128
3,CCCc1c(Cl)c(OC)c(Cl)c2c1OC(=O)c1c(CCC)c(Cl)c(O)c(Cl)c1O2,> 128
4,CCCc1cc(O)cc2c1OC(=O)c1c(CCC)c(Cl)c(O)c(Cl)c1O2,> 128

# Test system: Staphylococcus aureus
# Assay: Antibacterial activity against methicillin-sensitive Staphylococcus aureus ATCC 29213 after 18 hrs by broth microdilution method
# Assay type: functional, organism-based
# Conditions: ATCC 29213, 18 h, read-out: IC50
row,Compound,MIC [µM]
1,CCCc1c(Cl)c(O)c(Cl)c2c1Oc1c(Cl)c(O)c(Cl)c(CCC)c1C(=O)O2,16

# Test system: Staphylococcus aureus
# Assay: Antibacterial activity against methicillin-resistant Staphylococcus aureus ATCC 33591 after 18 hrs by broth microdilution method
# Assay type: functional, organism-based
# Conditions: ATCC 33591, 18 h, read-out: IC50
row,Compound,MIC [µM]
1,CCCc1c(Cl)c(O)c(Cl)c2c1Oc1c(Cl)c(O)c(Cl)c(CCC)c1C(=O)O2,16

# Test system: Staphylococcus aureus
# Assay: Antibacterial activity against methicillin-sensitive Staphylococcus aureus 15 after 18 hrs by broth microdilution method
# Assay type: functional, organism-based
# Conditions: Staphylococcus aureus, 15, 18 h; read-out: IC50
row,Compound,MIC [µM]
1,CCCc1c(Cl)c(O)c(Cl)c2c1Oc1c(Cl)c(O)c(Cl)c(CCC)c1C(=O)O2,16

# Test system: Staphylococcus aureus
# Assay: Antibacterial activity against methicillin-sensitive Staphylococcus aureus 12-28 after 18 hrs by broth microdilution method
# Assay type: functional, organism-based
# Conditions: 12-28, 18 h
row,Compound,IC50 [µM]
1,CCCc1c(Cl)c(O)c(Cl)c2c1Oc1c(Cl)c(O)c(Cl)c(CCC)c1C(=O)O2,16

# Test system: Staphylococcus aureus
# Assay: Antibacterial activity against methicillin-resistant Staphylococcus aureus 12-33 after 18 hrs by broth microdilution method
# Assay type: functional, organism-based
# Conditions: 12-33, 18 h, read-out: IC50
row,Compound,MIC [µM]
1,CCCc1c(Cl)c(O)c(Cl)c2c1Oc1c(Cl)c(O)c(Cl)c(CCC)c1C(=O)O2,32

# Test system: Staphylococcus epidermidis
# Assay: Antibacterial activity against methicillin-sensitive Staphylococcus epidermidis ATCC 12228 after 18 hrs by broth microdilution method
# Assay type: functional, organism-based
# Conditions: ATCC 12228, 18 h, read-out: IC50
row,Compound,MIC [µM]
1,CCCc1c(Cl)c(O)c(Cl)c2c1Oc1c(Cl)c(O)c(Cl)c(CCC)c1C(=O)O2,4

# Test system: Staphylococcus epidermidis
# Assay: Antibacterial activity against methicillin-sensitive Staphylococcus epidermidis 12-6 after 18 hrs by broth microdilution method
# Assay type: functional, organism-based
# Conditions: 12-6, 18 h
row,Compound,IC50 [µM]
1,CCCc1c(Cl)c(O)c(Cl)c2c1Oc1c(Cl)c(O)c(Cl)c(CCC)c1C(=O)O2,4

# Test system: Staphylococcus epidermidis
# Assay: Antibacterial activity against methicillin-resistant Staphylococcus epidermidis 12-8 after 18 hrs by broth microdilution method
# Assay type: functional, organism-based
# Conditions: 12-8, 18 h, read-out: IC50
row,Compound,MIC [µM]
1,CCCc1c(Cl)c(O)c(Cl)c2c1Oc1c(Cl)c(O)c(Cl)c(CCC)c1C(=O)O2,8

# Test system: Enterococcus faecalis
# Assay: Antibacterial activity against vancomycin-sensitive Enterococcus faecalis ATCC 29212 after 18 hrs by broth microdilution method
# Assay type: functional, organism-based
# Conditions: ATCC 29212, 18 h, read-out: IC50
row,Compound,MIC [µM]
1,CCCc1c(Cl)c(O)c(Cl)c2c1Oc1c(Cl)c(O)c(Cl)c(CCC)c1C(=O)O2,64

# Test system: Enterococcus faecalis
# Assay: Antibacterial activity against vancomycin-resistant Enterococcus faecalis ATCC 51299 after 18 hrs by broth microdilution method
# Assay type: functional, organism-based
# Conditions: ATCC 51299, 18 h, read-out: IC50
row,Compound,MIC [µM]
1,CCCc1c(Cl)c(O)c(Cl)c2c1Oc1c(Cl)c(O)c(Cl)c(CCC)c1C(=O)O2,64

# Test system: Enterococcus faecalis
# Assay: Antibacterial activity against vancomycin-sensitive Enterococcus faecalis 12-5 after 18 hrs by broth microdilution method
# Assay type: functional, organism-based
# Conditions: 12-5, 18 h, read-out: IC50
row,Compound,MIC [µM]
1,CCCc1c(Cl)c(O)c(Cl)c2c1Oc1c(Cl)c(O)c(Cl)c(CCC)c1C(=O)O2,64

# Test system: Enterococcus faecalis
# Assay: Antibacterial activity against vancomycin-resistant Enterococcus faecalis 09-9 after 18 hrs by broth microdilution method
# Assay type: functional, organism-based
# Conditions: 09-9, 18 h, read-out: IC50
row,Compound,MIC [µM]
1,CCCc1c(Cl)c(O)c(Cl)c2c1Oc1c(Cl)c(O)c(Cl)c(CCC)c1C(=O)O2,64

# Test system: Enterococcus faecium
# Assay: Antibacterial activity against vancomycin-resistant Enterococcus faecium ATCC 700221 after 18 hrs by broth microdilution method
# Assay type: functional, organism-based
# Conditions: ATCC 700221, 18 h, read-out: IC50
row,Compound,MIC [µM]
1,CCCc1c(Cl)c(O)c(Cl)c2c1Oc1c(Cl)c(O)c(Cl)c(CCC)c1C(=O)O2,64

# Test system: Enterococcus faecium
# Assay: Antibacterial activity against vancomycin-resistant Enterococcus faecium 12-1 after 18 hrs by broth microdilution method
# Assay type: functional, organism-based
# Conditions: 12-1, 18 h, read-out: IC50
row,Compound,MIC [µM]
1,CCCc1c(Cl)c(O)c(Cl)c2c1Oc1c(Cl)c(O)c(Cl)c(CCC)c1C(=O)O2,64

# Test system: Enterococcus faecium
# Assay: Antibacterial activity against vancomycin-sensitive Enterococcus faecium 12-3 after 18 hrs by broth microdilution method
# Assay type: functional, organism-based
# Conditions: 12-3, 18 h, read-out: IC50
row,Compound,MIC [µM]
1,CCCc1c(Cl)c(O)c(Cl)c2c1Oc1c(Cl)c(O)c(Cl)c(CCC)c1C(=O)O2,64

# Test system: Escherichia coli
# Assay: Antibacterial activity against extended spectrum beta-lactamase-deficient Escherichia coli ATCC 25922 after 18 hrs by broth microdilution method
# Assay type: functional, organism-based
# Conditions: ATCC 25922, 18 h, read-out: IC50
row,Compound,MIC [µM]
1,CCCc1c(Cl)c(O)c(Cl)c2c1Oc1c(Cl)c(O)c(Cl)c(CCC)c1C(=O)O2,> 256

# Test system: Escherichia coli
# Assay: Antibacterial activity against extended spectrum beta-lactamase-deficient Escherichia coli 1515 after 18 hrs by broth microdilution method
# Assay type: functional, organism-based
# Conditions: Escherichia coli, 1515, 18 h
row,Compound,IC50 [µM]
1,CCCc1c(Cl)c(O)c(Cl)c2c1Oc1c(Cl)c(O)c(Cl)c(CCC)c1C(=O)O2,> 256

# Test system: Escherichia coli
# Assay: Antibacterial activity against extended spectrum beta-lactamase-deficient Escherichia coli 12-14 after 18 hrs by broth microdilution method
# Assay type: functional, organism-based
# Conditions: 12-14, 18 h, read-out: IC50
row,Compound,MIC [µM]
1,CCCc1c(Cl)c(O)c(Cl)c2c1Oc1c(Cl)c(O)c(Cl)c(CCC)c1C(=O)O2,> 256

# Test system: Escherichia coli
# Assay: Antibacterial activity against extended spectrum beta-lactamase producing Escherichia coli 12-15 after 18 hrs by broth microdilution method
# Assay type: functional, organism-based
# Conditions: 12-15, 18 h, read-out: IC50
row,Compound,MIC [µM]
1,CCCc1c(Cl)c(O)c(Cl)c2c1Oc1c(Cl)c(O)c(Cl)c(CCC)c1C(=O)O2,> 256

# Test system: Klebsiella pneumoniae
# Assay: Antibacterial activity against extended spectrum beta-lactamase producing Klebsiella pneumoniae ATCC 700603 after 18 hrs by broth microdilution method
# Assay type: functional, organism-based
# Conditions: ATCC 700603, 18 h
row,Compound,IC50 [µM]
1,CCCc1c(Cl)c(O)c(Cl)c2c1Oc1c(Cl)c(O)c(Cl)c(CCC)c1C(=O)O2,> 256

# Test system: Klebsiella pneumoniae
# Assay: Antibacterial activity against extended spectrum beta-lactamase-deficient Klebsiella pneumoniae 7 after 18 hrs by broth microdilution method
# Assay type: functional, organism-based
# Conditions: Klebsiella pneumoniae, 7, 18 h; read-out: IC50
row,Compound,MIC [µM]
1,CCCc1c(Cl)c(O)c(Cl)c2c1Oc1c(Cl)c(O)c(Cl)c(CCC)c1C(=O)O2,> 256

# Test system: Klebsiella pneumoniae
# Assay: Antibacterial activity against NDM-1 producing Klebsiella pneumoniae ATCC BAA-2146 after 18 hrs by broth microdilution method
# Assay type: functional, organism-based
# Conditions: ATCC BAA-2146, 18 h, read-out: IC50
row,Compound,MIC [µM]
1,CCCc1c(Cl)c(O)c(Cl)c2c1Oc1c(Cl)c(O)c(Cl)c(CCC)c1C(=O)O2,> 256

# Test system: Klebsiella pneumoniae
# Assay: Antibacterial activity against extended spectrum beta-lactamase-deficient Klebsiella pneumoniae 12-4 after 18 hrs by broth microdilution method
# Assay type: functional, organism-based
# Conditions: 12-4, 18 h
row,Compound,IC50 [µM]
1,CCCc1c(Cl)c(O)c(Cl)c2c1Oc1c(Cl)c(O)c(Cl)c(CCC)c1C(=O)O2,> 256

# Test system: Klebsiella pneumoniae
# Assay: Antibacterial activity against extended spectrum beta-lactamase producing Klebsiella pneumoniae 12-8 after 18 hrs by broth microdilution method
# Assay type: functional, organism-based
# Conditions: 12-8, 18 h, read-out: IC50
row,Compound,MIC [µM]
1,CCCc1c(Cl)c(O)c(Cl)c2c1Oc1c(Cl)c(O)c(Cl)c(CCC)c1C(=O)O2,> 256

# Test system: Staphylococcus aureus
# Assay: Ratio of levofloxacin IC50 to compound IC50 for methicillin-resistant Staphylococcus aureus 12-33 after 18 hrs by broth microdilution method
# Assay type: functional
# Conditions: not given
row,Compound,Ratio IC50
1,CCCc1c(Cl)c(O)c(Cl)c2c1Oc1c(Cl)c(O)c(Cl)c(CCC)c1C(=O)O2,2
